Assays:
SKOV3 cells = assay: Serum starved proliferation assay on the ovarian carcinoma SKOV3 cells (C3); format: cell-based; details: EGF stimulated (100 ng/ml, 72 hours, serum free) or 72 hours with compounds, MTT cell viability assay; for IC50: Homo sapiens, SK-OV-3, 72 h, read-out: SKOV3 cell (C3): pIC50 (converted)
How it was run: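 MTT viability read-out in SKOV3 cells after a 24 h pre-incubation in 10% FCS, in one of two formats. EGF-stimulated version: serum-free compound exposure followed by 100 ng/ml EGF (final) for 72 h at 37 °C, 5% CO2. Otherwise, compound alone for 72 h.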

A431 cells = assay: Proliferation assay on the squamous carcinoma cell line A431 cells (C5); format: cell-based; details: Homo sapiens, A-431; 72 hours with compounds; MTT cell viability assay; read-out: A431 cell (C5): pIC50 (converted)
Procedure: The squamous carcinoma cell line (A431) was used in a cell proliferation assay, to assess the inhibitory effect of the compounds in whole cells.
In a first step the A431 cells were incubated for 24 hours in the presence of 10% FCS serum. In the second step the cells were incubated for 72 hours with the compounds to be tested at a final concentration of 100 ng/ml. The effect of the compounds on the cell proliferation was finally assessed in a standard MTT cell viability assay.

EGFR = EGFR (Homo sapiens, UniProt P00533); assay: In vitro inhibition of EGFR, Flash Plate or glass-fiber filter technology (C2); format: biochemical; design: 0.5 μg EGFR-kinase domain/well; details: EGFR-kinase domain, 5.0 μM unlabeled ATP, read-out: Kinase activity.(C2): pIC50 (converted)
How it was run: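 Two radiometric formats were used, each with 5.0 μM unlabeled ATP, [33P]ATP, 0.5 μg EGFR kinase domain and compounds from 1·10^−10 to 1·10^−6 M. Glass-fiber filter: 25° C for 10 min, pH 7.5, Mn2+/Mg2+, acid-stopped, phosphorimager read. Streptavidin Flash Plate: biotinylated poly(GT), pH 8.0, 30° C for 60 min.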

EGFR, sequence (P00533 712-979 limits assumed): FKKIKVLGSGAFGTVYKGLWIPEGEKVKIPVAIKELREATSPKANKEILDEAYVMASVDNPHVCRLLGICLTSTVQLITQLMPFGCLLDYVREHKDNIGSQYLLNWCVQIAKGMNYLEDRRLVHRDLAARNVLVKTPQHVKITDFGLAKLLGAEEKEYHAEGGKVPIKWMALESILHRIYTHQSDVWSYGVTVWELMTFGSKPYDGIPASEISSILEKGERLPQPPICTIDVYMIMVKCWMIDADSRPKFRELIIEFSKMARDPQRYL

| SMILES | IC50 (SKOV3 cells) [nM] | IC50 (A431 cells) [nM] | IC50 (EGFR) [nM] | melting point [°C] | SKOV3 cell (C3): pIC50 (SKOV3 cells) |
| --- | --- | --- | --- | --- | --- |
| COc1cc2ncnc3c2cc1OCCCCCNCc1ccc(Br)cc1N3 [Compound 20, 4,6-ethanediylidenepyrimido[4,5-b][6,1,12]benzoxadiazacyclo-pentadecine, 17-bromo-8,9,10,11,12,13,14,19-octahydro-20-methoxy-] | 229 | 1260 | 25.1 | – | – |
| COc1cc2ncnc3c2cc1OCCCCOCCc1ccc(Cl)cc1N3 [Compound 23, 4,6-ethanediylidene-13H-pyrimido[4,5-b][6,11,1]benzodioxaazacyclo-pentadecine, 17-chloro-8,9,10,11,14,19-hexahydro-20-methoxy-] | 60.3 | 501 | 10 | – | – |
| COc1cc2ncnc3c2cc1OCCCCCCCCOc1cccc(c1)N3 [Compound 25, 22H-4,6-ethanediylidene-21,17-methenopyrimido[5,4-d][1,12,6]dioxaazacycloeicosine, 8,9,10,11,12,13,14,15-octahydro-24-methoxy-] | > 10000 | > 3160 | 631 | – | – |
| COc1cc2ncnc3c2cc1OCCCNC(=O)CCc1ccc(Cl)cc1N3 [Compound 26, 4,6-ethenopyrimido[4,5-b][6,1,10]benzoxadiazacyclopentadecin-12(13H)-one, 17-chloro-8,9,10,11,14,19-hexahydro-20-methoxy-] | 120 | 2000 | 2.51 | – | – |
| COc1cc2ncnc3c2cc1OCCNC(=O)CNCc1ccc(Cl)cc1N3 [Compound 73, 4,6-ethanediylidenepyrimido[4,5-b][6,1,9,12]benzoxatriazacyclopentadecin-11(8H)-one, 17-chloro-9,10,12,13,14,19-hexahydro-20-methoxy-] | 3980 | – | 39.8 | 294.2 to 295.2 | – |
| COc1cc2ncnc3c2cc1OCCNC(=O)CCNCc1ccc(Cl)cc1N3 [Compound 75, 4,6-ethanediylidene-8H-pyrimido[4,5-b][6,1,9,13]benzoxatriazacyclohexadecin-11(12H)-one, 18-chloro-9,10,13,14,15,20-hexahydro-21-methoxy-] | 6310 | – | 63.1 | 254.4 to 256.5 | – |
| COc1cc2ncnc3c2cc1OCCCNC(=O)CN(C)Cc1cc(F)c(Cl)cc1N3 [Compound 80, 4,6-ethanediylidene-12H-pyrimido[4,5-b][6,1,10,13]benzoxatriazacyclohexadecin-12-one, 18-chloro-17-fluoro-8,9,10,11,13,14,15,20-octahydro-21-methoxy-14-methyl-] | 63.1 | – | 20 | 260.4 to 261.1 | – |
| COc1cc2ncnc3c2cc1OCCNC(=O)CNCc1cc(F)c(Cl)cc1N3 [Compound 81, 4,6-ethanediylidenepyrimido[4,5-b][6,1,9,12]benzoxatriazacyclopentadecin-11(8H)-one, 17-chloro-16-fluoro-9,10,12,13,14,19-hexahydro-20-methoxy-] | 251 | – | 251 | 304.2 to 304.4 | – |
| COc1cc2ncnc3c2cc1OCCCNC(=O)CNCc1cc(F)c(Cl)cc1N3 [Compound 82, 4,6-ethanediylidene-12H-pyrimido[4,5-b][6,1,10,13]benzoxatriazacyclohexadecin-12-one, 18-chloro-17-fluoro-8,9,10,11,13,14,15,20-octahydro-21-methoxy-] | 79.4 | – | 20 | 311 to 311.9 | – |
| COc1cc2ncnc3c2cc1OCCCCNCCN(C)Cc1ccc(Cl)cc1N3 [Compound 115, 4,6-ethanediylidenepyrimido[4,5-b][6,1,11,14]benzoxatriazacycloheptadecine, 19-chloro-8,9,10,11,12,13,14,15,16,21-decahydro-22-methoxy-15-methyl-] | 126 | – | 6.31 | 196.9 to 197.8 | – |
| COc1cc2ncnc3c2cc1OCCNCCN(C)Cc1ccc(Cl)cc1N3 [Compound 116, 4,6-ethanediylidenepyrimido[4,5-b][6,1,9,12]benzoxatriazacyclopentadecine, 17-chloro-8,9,10,11,12,13,14,19-octahydro-20-methoxy-13-methyl-] | 63.1 | – | 200 | 195.8 to 196.6 | – |

Continued, values first:

| IC50 (SKOV3 cells) [nM] | IC50 (A431 cells) [nM] | IC50 (EGFR) [nM] | melting point [°C] | SKOV3 cell (C3): pIC50 (SKOV3 cells) | SMILES |
| --- | --- | --- | --- | --- | --- |
| 5010 | > 3160 | 63.1 | – | – | COc1cc2ncnc3c2cc1OCCCCCN(C(=O)OC(C)(C)C)Cc1ccc(Br)cc1N3 [Compound 19, 4,6-ethanediylidenepyrimido[4,5-b][6,1,12]benzoxadiazacyclo-pentadecine-13(8H)-carboxylic acid, 17-bromo-9,10,11,12,14,19-hexahydro-20-methoxy-, 1,1-dimethylethyl ester] |
| 1450 | 1580 | 25.1 | – | – | COCCOc1cc2ncnc3c2cc1OCCCCCCOc1ccc(Br)cc1N3 [Compound 28, 4,6-ethanediylidene-19H-pyrimido[4,5-b][6,13,1]benzodioxaazacyclopentadecine, 17-bromo-8,9,10,11,12,13-hexahydro-20-(2-methoxyethoxy)-] |
| > 10000 | > 3160 | 794 | – | – | COc1cc2ncnc3c2cc1OCCCCCN(C(=O)OC(C)(C)C)Cc1cc(F)c(Cl)cc1N3 [Compound 29, 4,6-ethanediylidenepyrimido[4,5-b][6,1,12]benzoxadiazacyclopentadecine-13(8H)-carboxylic acid, 17-chloro-16-fluoro-9,10,11,12,14,19-hexahydro-20-methoxy-, 1,1-dimethylethyl ester] |
| 1000 | – | 25.1 | 240 to 240.3 | – | COc1cc2ncnc3c2cc1OCCCNC(=O)CN(C)Cc1ccc(Cl)cc1N3 [Compound 74, 4,6-ethanediylidene-12H-pyrimido[4,5-b][6,1,10,13]benzoxatriazacyclohexadecin-12-one, 18-chloro-8,9,10,11,13,14,15,20-octahydro-21-methoxy-14-methyl-] |
| 200 | – | 25.1 | 350.5 to 352.5 | – | COc1cc2ncnc3c2cc1OCCCNC(=O)C1CCC(=O)N1Cc1ccc(Cl)cc1N3 (stereo not drawn) [Compound 76, 4,6-etheno-8H-pyrimido[4,5-b]pyrrolo[2,1-l][6,1,10,13]benzoxatriazacyclohexadecine-12,15(14H)-dione, 20-chloro-9,10,11,12a,13,17,22-heptahydro-23-methoxy-] |
| 316 | – | 31.6 | 261.4 to 264 | – | COc1cc2ncnc3c2cc1OCCNC(=O)C1CCCN1Cc1cc(F)c(Cl)cc1N3 (stereo not drawn) [Compound 78, 4,6-ethanediylidenepyrimido[4,5-b]pyrrolo[2,1-k][6,1,9,12]benzoxatriazacyclopentadecin-11(8H)-one, 19-chloro-18-fluoro-9,10,11a,12,13,14,16,21-octahydro-22-methoxy-] |
| 10000 | – | 631 | 306.3 to 307.4 | – | COc1cc2ncnc3c2cc1OCCNC(=O)CN(C)Cc1cc(F)c(Cl)cc1N3 [Compound 79, 4,6-ethanediylidenepyrimido[4,5-b][6,1,9,12]benzoxatriazacyclopentadecin-11(8H)-one, 17-chloro-16-fluoro-9,10,12,13,14,19-hexahydro-20-methoxy-13-methyl-] |
| – | – | 501 | 262 to 262.8 | 6.1 | COc1cc2ncnc3c2cc1OCCNC(=O)C1CCCN1Cc1ccc(Cl)cc1N3 (stereo not drawn) [Compound 83, 4,6-ethanediylidenepyrimido[4,5-b]pyrrolo[2,1-k][6,1,9,12]benzoxatriazacyclopentadecin-11(8H)-one, 19-chloro-9,10,11a,12,13,14,16,21-octahydro-22-methoxy-] |
| 200 | – | 25.1 | 304.6 to 304.8 | – | COc1cc2ncnc3c2cc1OCCCNC(=O)CNCc1ccc(Cl)cc1N3 [Compound 99, 4,6-ethanediylidene-12H-pyrimido[4,5-b][6,1,10,13]benzoxatriazacyclohexadecin-12-one, 18-chloro-8,9,10,11,13,14,15,20-octahydro-21-methoxy-] |
| 126 | – | 7.94 | 226.3 to 227.7 | – | COc1cc2ncnc3c2cc1OCCCCNC(=O)C1CCCN1Cc1ccc(Cl)cc1N3 (stereo not drawn) [Compound 100, 4,6-ethanediylidenepyrimido[4,5-b]pyrrolo[2,1-m][6,1,11,14]benzoxatriazacycloheptadecin-13(8H)-one, 21-chloro-9,10,11,12,13a, 14,15,16,18,23-decahydro-24-methoxy-] |
| 39.8 | – | 10 | 202.8 to 203.6 | – | COc1cc2ncnc3c2cc1OCCCNCCN(C)Cc1ccc(Cl)cc1N3 [Compound 114, 4,6-ethanediylidene-8H-pyrimido[4,5-b][6,1,10,13]benzoxatriazacyclohexadecine, 18-chloro-9,10,11,12,13,14,15,20-octahydro-21-methoxy-14-methyl-] |
